In paper PMC8940841, “A metabolically stable PET tracer for imaging synaptic vesicle protein 2A: synthesis and preclinical characterization of [^18F]SDM-16” (European Journal of Nuclear Medicine and Molecular Imaging, 2021):
Like-named read-outs stand apart in the source and are kept apart here.

How the values were obtained:
human SV2A [1] = molecular target: T1, human SV2A (Homo sapiens, UniProt Q7L0J3); test: biochemical
Description: Competition binding assays were performed twice independently using separate assay materials, with 4 technical replicates from each independent assay. […] Duplicate samples of human frontal cortex gray matter were homogenized in PBS buffer (10 mg/mL) for storage at − 80 °C and were diluted to a stock concentration of 4 mg/mL in PBS on the day of the assays. […] Working stocks of brain homogenate (100 µL; final concentration of 2 mg/mL), blocking ligands (20 µL), and radioligand (80 µL; final concentration 2.5 nM) were combined in quadruplicate wells of 96-well plates, sealed, and incubated at room temperature for 90 min on an orbital shaker set to 250 RPM. Reaction plates were filtered, rapidly washed with cold PBS, and dried. Forty microliters of Microscint-20 scintillation cocktail (Perkin-Elmer) was added to each well, and the plate was counted using a Microbeta2 plate reader (Perkin-Elmer). GraphPad Prism was used for curve fitting using the one-site Ki model.

human SV2A [2] = molecular target: T1, human SV2A; parameters: Duplicate samples of human frontal cortex gray matter were homogenized in PBS buffer; from tissue; host or cells: human frontal cortex gray matter homogenate; conditions: other SV2A ligands; cited from earlier work
SV2A = SV2A (Macaca mulatta, UniProt H9EQH8); test: LEV blocking and displacement PET scans, Lassen plot; format: in vivo, rhesus monkeys (Macaca mulatta); parameters: from tissue; host or cells: brain of living rhesus monkeys (in vivo PET); conditions: LEV 30 mg/kg i.v., Lassen plot with [^18F]SDM-16
Description: (§1) Four monkeys were studied.
To examine the in vivo binding specificity, SV2A occupancy, and the extent of nonspecific binding in the monkey brain, we performed the Lassen plot analysis using data from the two baseline scans and one blocking scan in the same monkey.

[3] = Adverse event observation during PET imaging; format: in vivo, rhesus monkeys; conditions: tracer at microdose 0.646–0.926 µg; LEV i.v. 30 mg/kg
Description: as §1
Adverse event was also not observed following LEV (i.v., 30 mg/kg) administration, including the displacement and blocking scan.

T1 sequence (Q7L0J3 whole entry): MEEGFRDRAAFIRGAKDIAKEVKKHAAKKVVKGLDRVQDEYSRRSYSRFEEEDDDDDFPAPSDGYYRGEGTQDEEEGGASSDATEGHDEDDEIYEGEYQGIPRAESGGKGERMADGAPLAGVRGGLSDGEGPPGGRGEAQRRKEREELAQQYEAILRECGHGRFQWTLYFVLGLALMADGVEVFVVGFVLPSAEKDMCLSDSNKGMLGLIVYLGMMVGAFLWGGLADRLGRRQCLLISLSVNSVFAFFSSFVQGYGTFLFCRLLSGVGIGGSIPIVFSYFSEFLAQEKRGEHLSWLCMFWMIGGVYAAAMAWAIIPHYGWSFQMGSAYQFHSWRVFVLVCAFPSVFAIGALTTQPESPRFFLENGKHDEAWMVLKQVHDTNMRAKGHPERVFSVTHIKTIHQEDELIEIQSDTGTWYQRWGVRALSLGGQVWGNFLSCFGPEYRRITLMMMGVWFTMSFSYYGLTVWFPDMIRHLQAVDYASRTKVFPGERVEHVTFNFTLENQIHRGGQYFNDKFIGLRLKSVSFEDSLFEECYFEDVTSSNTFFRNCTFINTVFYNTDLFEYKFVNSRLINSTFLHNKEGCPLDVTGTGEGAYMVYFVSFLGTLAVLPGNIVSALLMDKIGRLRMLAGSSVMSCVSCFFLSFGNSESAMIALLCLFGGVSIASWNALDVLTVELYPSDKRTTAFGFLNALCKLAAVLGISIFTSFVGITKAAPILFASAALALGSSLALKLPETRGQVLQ
SV2A, sequence (H9EQH8 1-742): as the sequence (Q7L0J3 whole entry) above, with G64S, I572V counted along it

SMILES	Ki (human SV2A [1]) [nM]	Ki (human SV2A [1]; [^3H]UCB-J, human frontal cortex homogenate) [nM]	Ki (human SV2A [2]) [nM]	SV2A occupancy (SV2A) [%]	adverse events [3]
Cc1nccn1CN1CC(c2cc(F)cc(F)c2)CC1=O (racemic) [Rac SDM-16, 4-(3,5-difluorophenyl)-1-((2-methyl-1H-imidazol-1-yl)methyl)pyrrolidin-2-one]	3.7	–	–	–	–
Cc1nccn1CN1C[C@H](c2cc(F)cc(F)c2)CC1=O [(S)-SDM-16]	–	25.5	–	–	–
CC[C@@H](C(N)=O)N1CCCC1=O [Levetiracetam, levetiracetam, reference compound]	–	–	2100	79	not observed
Cc1nccn1CN1C[C@@H](c2cc(F)cc(F)c2)CC1=O [SDM-16]	0.9	–	–	–	no adverse events were observed
